Test results: patent publication US10450549B2, “Aryloxyphenoxypropionate tolerance in turfrgass species and use of AAD1 as a selectable marker” (Dow AgroSciences, LLC, priority 2004, dated 2019)

Assays:
[1] = system: AAD1 (v3)-transformed T0 corn events; experiment: Tolerance of T0 AAD1 (v3) corn plants (pDAB3404) to postemergence AOPP herbicides; type: in vivo
[2] = system: creeping bentgrass cv Crenshaw callus; experiment: Callus selection conditions with quizalofop and haloxyfop: creeping bentgrass; type: cell-based, Agrostis stolonifera
Procedure: (§1) Selection conditions for creeping bentgrass cv Crenshaw and Kentucky bluegrass cv Shamrock were established using the grass-active herbicides, quizalofop and haloxyfop. Concentrations of quizalofop and haloxyfop ranged from 0 to 300 nM dissolved in defined callus maintenance media for each species. Callus tissue, derived from mature seeds of each species or cultivar, was used in the experiment. In the case of creeping bentgrass cv Crenshaw, calli maintained on CBG-3 medium were transferred to plates of CBG-3 medium containing either haloxyfop or quizalofop at 0, 50, 100, 150, 200, 250, and 300 nM final concentrations. Visual observations (growth of callus and development of necrosis) were made over a period of 1.5 months. For Kentucky bluegrass cv Shamrock and experimental line A98, calli maintained on KBG-2 were transferred to plates of KBG-2 medium containing 0, 50, 100, 150, 200, 250, and 300 nM final concentrations of the herbicides. Visual observations of callus growth and necrosis were made over a 2.5 month period. […] The calli became necrotic at lower concentrations of quizalofop relative to haloxyfop and the response was more rapid. […]

[3] = system: Kentucky bluegrass cv Shamrock callus; experiment: Callus selection conditions with quizalofop and haloxyfop: Kentucky bluegrass; type: cell-based
Procedure: as §1

[4] = system: AAD1-transformed T0 ‘Crenshaw’ creeping bentgrass events (pDAB3878, pDAB5042); experiment: Quizalofop-p-ethyl postemergence on AAD1-transformed T0 Crenshaw creeping bentgrass, visual % injury; type: in vivo, Agrostis stolonifera L. var. palustris
Procedure: After molecular confirmation was utilized to identify transgenic events, a number of transgenic events were tested for herbicide tolerance. Specific isolated transgenic events were selected and maintained vegetatively through division of the crowns and replanting the clonal pieces into fresh growth medium. Clonally propagated plants were maintained by periodic “mowing” of vegetative tissues.
Growth medium was prepared by mixing Promix® and sand in a 2 to 1 ratio. The medium was contained in plastic pots with a surface area of 84.6 square centimeters (cm^2). When required to maintain plant health, a fungicide, insecticide, and/or other chemical or physical treatment was applied to stock plants. The plants were maintained in a greenhouse with an approximate 14 hour photoperiod which was maintained at 24-27° C. during the day and 22-25° C. during the night. Nutrients (Peters Excel® 15-5-15 5-Ca 2-Mg and iron chelate) were applied in the irrigation solution as needed, and water was added on a regular basis. Supplemental lighting was provided with overhead metal halide 1000-Watt lamps when photosynthetically active radiation (PAR) dropped below 500.
Selected T0 plants were sprayed with quizalofop-p-ethyl (Assure II®, DUPONT, Wilmington, Del.) at rates ranging from 60 to 2,240 g ae/ha. […] This rate also controls susceptible monocot weed species. Measured amounts were placed individually in 25 mL glass vials and dissolved in a 4 mL volume of 1.0% (v/v) Agri-Dex® Crop Oil Concentrate (COC) from HELENA CHEMICAL (Collierville, Tenn.). Application solutions were prepared by serial dilution of the highest rate applied. One-half the volume of the highest rate stock solution (2 mL) was transferred to a clean 25 mL vial containing an equal volume of 1% COC and the diluted solution was mixed. Additional dilutions were prepared similarly by removing one-half the volume of the previous concentration (2 mL), and adding to an equal volume of 1% COC and mixing. When preparing the lowest concentration, the remaining one-half volume was discarded. All 2 mL stock solutions were further diluted by adding 10 mL aqueous mixture of 1.0% (v/v) COC, so that the final spray solutions were 12 mL in volume and contained 1.0% (v/v) COC.
Spray solutions were applied to the plant material with an overhead Mandel™ track sprayer equipped with a 8002E nozzles calibrated to deliver 187 L/ha over an application area of 0.503 square meters (m^2) at a spray height of 18 inches (46 cm) above average plant canopy height. Control plants were sprayed in the same manner with the COC blank.
The treated plants and control plants were placed in a greenhouse, and watered by sub-irrigation to prevent wash-off of the test compounds. At various times after application, the condition of the test plants as compared with that of the untreated plants was determined visually and scored on a scale of 0 to 100 percent (where 0 corresponds to no injury or growth inhibition and 100 corresponds to complete kill). Regenerated, non-transformed (NT) ‘Crenshaw’ or elite line 2905-2 creeping bentgrass plants and/or seed-derived clonally propagated plants served as quizalofop sensitive controls.

[5] = system: Hi-II corn grown from seed; experiment: Lethal dose of AOPP herbicides on non-transformed Hi-II corn

C[C@@H](Oc1ccc(Oc2cnc3cc(Cl)ccc3n2)cc1)C(=O)O [quizalofop]
injury of most AAD1 (v3) T0 lines ([1]; 8× field dose (64× lethal dose), 14 DAT): no visible injury | % Injury 14 DAT ([1]; 8.8 g ae/ha, construct 3404 event 001 clone 017): 0% | % Injury 14 DAT ([1]; 8.8 g ae/ha, construct 3404 event 001 clone 019): 30% | % Injury 14 DAT ([1]; 8.8 g ae/ha, construct 3404 event 022 clone 021): 0% | % Injury 14 DAT ([1]; 8.8 g ae/ha, construct 3404 event 038 clone 017): 0% | % Injury 14 DAT ([1]; 17.5 g ae/ha, construct 3404 event 022 clone 017): 0% | % Injury 14 DAT ([1]; 35 g ae/ha, construct 3404 event 001 clone 020): 0% | % Injury 14 DAT ([1]; 35 g ae/ha, construct 3404 event 017 clone 018): 0% | % Injury 14 DAT ([1]; 35 g ae/ha, construct 3404 event 017 clone 019): 0% | % Injury 14 DAT ([1]; 35 g ae/ha, construct 3404 event 022 clone 022): 0% | % Injury 14 DAT ([1]; 35 g ae/ha, construct 3404 event 033 clone 012): 0% | % Injury 14 DAT ([1]; 35 g ae/ha, construct 3404 event 038 clone 019): 70% | % Injury 14 DAT ([1]; 35 g ae/ha, construct 3404 event 038 clone 020): 80% | % Injury 14 DAT ([1]; 70 g ae/ha, construct 3404 event 017 clone 020): 0% | % Injury 14 DAT ([1]; 70 g ae/ha, construct 3404 event 017 clone 021): 0% | % Injury 14 DAT ([1]; 70 g ae/ha, construct 3404 event 022 clone 023): 0% | % Injury 14 DAT ([1]; 70 g ae/ha, construct 3404 event 033 clone 013): 0% | % Injury 14 DAT ([1]; 70 g ae/ha, construct 3404 event 033 clone 014): 0% | % Injury 14 DAT ([1]; 70 g ae/ha, construct 3404 event 038 clone 021): 80% | % Injury 14 DAT ([1]; 70 g ae/ha, construct 3404 event 038 clone 022): 80% | % Injury 14 DAT ([1]; 140 g ae/ha, construct 3404 event 017 clone 022): 0% | % Injury 14 DAT ([1]; 140 g ae/ha, construct 3404 event 017 clone 023): 30% | % Injury 14 DAT ([1]; 140 g ae/ha, construct 3404 event 033 clone 015): 0% | % Injury 14 DAT ([1]; 280 g ae/ha, construct 3404 event 017 clone 024): 30% | % Injury 14 DAT ([1]; 280 g ae/ha, construct 3404 event 017 clone 025): 20% | % Injury 14 DAT ([1]; 280 g ae/ha, construct 3404 event 033 clone 016): 0% | concentration sufficient to kill callus within six weeks [2]: 150 nM | concentration needed to kill all calli [3]: 200 nM | mean injury, pDAB5042 Crenshaw events ([4]; 60, 120, 240 and 480 g ae/ha, 21 to 24 DAA): less than 10% | mean injury, pDAB3878 Crenshaw events ([4]; 120 g ae/ha, 11 DAA): about 20% | mean injury, pDAB3878 Crenshaw events ([4]; 120 g ae/ha, 14 DAA): about 25% | mean injury, pDAB3878 Crenshaw events ([4]; 120 g ae/ha, 20 DAA): about 20% | mean injury, pDAB3878 Crenshaw events ([4]; 480 g ae/ha, 11 DAA): ~30% | mean injury, pDAB3878 Crenshaw events ([4]; 480 g ae/ha, 14 DAA): ~30% | mean injury, pDAB3878 Crenshaw events ([4]; 480 g ae/ha, 20 DAA): about 20% | injury of individual pDAB5042 Crenshaw events ([4]; 480 g ae/ha, 21-24 DAA, all events except 204 and 227): ≤ 20% | lethal dose ([5]; Assure II + 1% COC (v/v)): 4.4 g ae/ha) | rate that effectively kills (>95% injury) three to four leaf Hi-II corn ([5]; postemergence, commercial formulations): 4.4 g ae/ha
